ChEMBL document CHEMBL3751683, “Synthesis, colon-targeted studies and pharmacological evaluation of an anti-ulcerative colitis drug 4-Aminosalicylic acid-β-O-glucoside” (Eur J Med Chem, 2016)
Values after ≈ are worked out from the molar mass of the structure shown. Values belong to the molecule of their own block, whether it stands above or below them. Active and inactive are the calls of the source. The rule behind the calls is not given here.

Columns and labels:
[1] = Partition coefficient, log P of the compound at pH 7.4 by shake flask method; assay type: physicochemical; conditions: octanol/water
[2] = test system: Stomach; test: Drug level in Sprague-Dawley rat stomach homogenate treated with sodium 4-amino-2-((2S,3R,4S,5S,6R)-3,4,5-trihydroxy-6-(hydroxymethyl)tetrahydro-2H- pyran-2-yloxy)benzoate at pH 4.5 by HPLC analysis; assay type: ADME, tissue-based; conditions: in vivo
[3] = test system: Rattus norvegicus; test: Antiulcerative colitis activity in TNBS-induced Sprague-Dawley rat colitis model assessed as myeloperoxidase activity at 115 mg/kg, qd for 6 consecutive days by spectrophotometry (reference value: 1.44 +/- 0.041 U/g); assay type: functional
[4] = test system: Stomach; test: Drug level in colitis Sprague-Dawley rat model stomach homogenate treated with sodium 4-amino-2-((2S,3R,4S,5S,6R)-3,4,5-trihydroxy-6-(hydroxymethyl)tetrahydro-2H- pyran-2-yloxy)benzoate at pH 4.5 by HPLC analysis; assay type: ADME, tissue-based; conditions: in vivo
[5] = test system: Rattus norvegicus; test: Antiulcerative colitis activity in TNBS-induced Sprague-Dawley rat colitis model assessed as effect on TNBS-induced mucosal abscess at 115 mg/kg qd for 6 consecutive days by hematoxylin and eosin staining based light microscopic analysis; assay type: functional, organism-based
[6] = Drug level in colitis Sprague-Dawley rat model cecum treated with sodium 4-amino-2-((2S,3R,4S,5S,6R)-3,4,5-trihydroxy-6-(hydroxymethyl)tetrahydro-2H- pyran-2-yloxy)benzoate at pH 7.4 after 12 hrs by HPLC analysis; assay type: ADME, tissue-based, Caecum; conditions: in vivo, pH 7.4, 12 h
[7] = test system: Rattus norvegicus; test: Antiulcerative colitis activity in TNBS-induced Sprague-Dawley rat colitis model assessed as effect on TNBS-induced inflammatory infiltrate at 115 mg/kg qd for 6 consecutive days by hematoxylin and eosin staining based light microscopic analysis; assay type: functional, organism-based
[8] = test system: Colon; test: Drug level in Sprague-Dawley rat colon treated with sodium 4-amino-2-((2S,3R,4S,5S,6R)-3,4,5-trihydroxy-6-(hydroxymethyl)tetrahydro-2H- pyran-2-yloxy)benzoate at pH 7.4 after 12 hrs by HPLC analysis; assay type: ADME, tissue-based; conditions: in vivo, pH 7.4, 12 h
[9] = Drug level in Sprague-Dawley rat cecum treated with sodium 4-amino-2-((2S,3R,4S,5S,6R)-3,4,5-trihydroxy-6-(hydroxymethyl)tetrahydro-2H- pyran-2-yloxy)benzoate at pH 7.4 after 12 hrs by HPLC analysis; assay type: ADME, tissue-based, Caecum; conditions: in vivo, pH 7.4, 12 h
[10] = test system: Small intestine; test: Drug level in colitis Sprague-Dawley rat model small intestine homogenate treated with sodium 4-amino-2-((2S,3R,4S,5S,6R)-3,4,5-trihydroxy-6-(hydroxymethyl)tetrahydro-2H- pyran-2-yloxy)benzoate at pH 6.8 by HPLC analysis; assay type: ADME, tissue-based; conditions: in vivo
[11] = test system: Rattus norvegicus; test: Antiulcerative colitis activity in TNBS-induced Sprague-Dawley rat colitis model assessed as decrease in severity of inflammation at 115 mg/kg qd for 6 consecutive days measured on 7th day; assay type: functional, organism-based
[12] = Aqueous solubility of the compound; assay type: physicochemical; conditions: buffer
[13] = test system: Colon; test: Drug level in colitis Sprague-Dawley rat model colon treated with sodium 4-amino-2-((2S,3R,4S,5S,6R)-3,4,5-trihydroxy-6-(hydroxymethyl)tetrahydro-2H- pyran-2-yloxy)benzoate at pH 7.4 after 12 hrs by HPLC analysis; assay type: ADME, tissue-based; conditions: in vivo, pH 7.4, 12 h
[14] = test system: Small intestine; test: Drug level in Sprague-Dawley rat small intestine homogenate treated with sodium 4-amino-2-((2S,3R,4S,5S,6R)-3,4,5-trihydroxy-6-(hydroxymethyl)tetrahydro-2H- pyran-2-yloxy)benzoate at pH 6.8 by HPLC analysis; assay type: ADME, tissue-based; conditions: in vivo
[15] = test system: Rattus norvegicus; test: Antiulcerative colitis activity in TNBS-induced Sprague-Dawley rat colitis model assessed as effect on TNBS-induced mucosal abscess at 128 mg/kg qd for 6 consecutive days by hematoxylin and eosin staining based light microscopic analysis; assay type: functional, organism-based
[16] = test system: Rattus norvegicus; test: Antiulcerative colitis activity in TNBS-induced Sprague-Dawley rat colitis model at 385 mg/kg, qd for 6 consecutive days measured after 12 days; assay type: functional, organism-based
[17] = test system: Rattus norvegicus; test: Antiulcerative colitis activity in TNBS-induced Sprague-Dawley rat colitis model assessed as myeloperoxidase activity at 385 mg/kg, qd for 6 consecutive days by spectrophotometry (reference value: 1.44 +/- 0.041 U/g); assay type: functional
[18] = test system: Rattus norvegicus; test: Antiulcerative colitis activity in TNBS-induced Sprague-Dawley rat colitis model assessed as myeloperoxidase activity at 255 mg/kg, qd for 6 consecutive days by spectrophotometry (reference value: 1.44 +/- 0.041 U/g); assay type: functional
[19] = Stability of compound in isotonic phosphate buffer at pH 1.2 after 12 hrs by HPLC analysis; assay type: physicochemical; conditions: pH 1.2, 12 h
[20] = test system: Rattus norvegicus; test: Antiulcerative colitis activity in TNBS-induced Sprague-Dawley rat colitis model assessed as decrease in colon/body weight ratio drug administered once daily for 6 consecutive days measured 24 hrs after last drug challenge; assay type: functional, organism-based
[21] = test system: Rattus norvegicus; test: Antiulcerative colitis activity in TNBS-induced Sprague-Dawley rat colitis model drug administered for once daily for 6 consecutive days; assay type: functional, organism-based
[22] = Stability of compound in isotonic phosphate buffer at pH 6.8 after 12 hrs by HPLC analysis; assay type: physicochemical; conditions: pH 6.8, 12 h
[23] = test system: Rattus norvegicus; test: Antiulcerative colitis activity in TNBS-induced Sprague-Dawley rat colitis model assessed as normal morphology of colon at 255 mg/kg qd for 6 consecutive days by hematoxylin and eosin staining based light microscopic analysis; assay type: functional, organism-based
[24] = Stability of compound in isotonic phosphate buffer at pH 7.4 after 12 hrs by HPLC analysis; assay type: physicochemical; conditions: pH 7.4, 12 h
[25] = test system: Rattus norvegicus; test: Antiulcerative colitis activity in TNBS-induced Sprague-Dawley rat colitis model assessed as decrease in macroscopic injury ratio drug administered once daily for 6 consecutive days measured 24 hrs after last drug challenge; assay type: functional, organism-based
[26] = test system: Rattus norvegicus; test: Antiulcerative colitis activity in TNBS-induced Sprague-Dawley rat colitis model assessed as normal morphology of colon at 385 mg/kg qd for 6 consecutive days by hematoxylin and eosin staining based light microscopic analysis; assay type: functional, organism-based
[27] = test system: Rattus norvegicus; test: Antiulcerative colitis activity in TNBS-induced Sprague-Dawley rat colitis model assessed as decrease in severity of inflammation at 385 to 128 mg/kg qd for 6 consecutive days measured on 7th day; assay type: functional, organism-based
[28] = test system: Rattus norvegicus; test: Antiulcerative colitis activity in TNBS-induced Sprague-Dawley rat colitis model assessed as decrease in severity of inflammation at 300 mg/kg qd for 6 consecutive days measured on 7th day; assay type: functional, organism-based
[29] = test system: Rattus norvegicus; test: Antiulcerative colitis activity in TNBS-induced Sprague-Dawley rat colitis model assessed as myeloperoxidase activity at 300 mg/kg, qd for 6 consecutive days by spectrophotometry (reference value: 1.44 +/- 0.041 U/g); assay type: functional

logD [1]: 0.901
Drug metabolism [2]: metabolite_detected
Drug metabolism [4]: metabolite_detected
Drug metabolism [6]: metabolite_detected
Drug metabolism [8]: metabolite_detected
Drug metabolism [9]: metabolite_detected
Drug metabolism [10]: metabolite_detected
solubility [12]: 1.43 mg/mL (≈ 9.34 mM)
Drug metabolism [13]: metabolite_detected
Drug metabolism [14]: metabolite_detected
SMILES: Nc1ccc(C(=O)O)c(O)c1 [AMINOSALICYLIC ACID]
Activity [3]: 0.82 U/g
Activity [5]: inactive
Activity [7]: inactive
inhibition [11]: Active

SMILES: Nc1ccc(O)c(C(=O)O)c1
Activity [5]: inactive
Activity [7]: inactive
inhibition [11]: Active

logD [1]: -0.44
Stability [19]: Stable
Stability [22]: Stable
Stability [24]: Stable
solubility [12]: 635 mg/mL
SMILES: Nc1ccc(C(=O)[O-])c(O[C@@H]2O[C@H](CO)[C@@H](O)[C@H](O)[C@H]2O)c1.[Na+]
Activity [15]: inactive
Activity [16]: Active
Activity [17]: 0.4 U/g
Activity [18]: 0.51 U/g
inhibition [20]: Dose-dependent effect
Activity [21]: Dose-dependent effect
Activity [23]: Active
inhibition [25]: Dose-dependent effect
Activity [26]: Active
inhibition [27]: Active

SMILES: O=C(O)c1cc(/N=N/c2ccc(S(=O)(=O)Nc3ccccn3)cc2)ccc1O [SULFASALAZINE]
inhibition [28]: Active
Activity [29]: 0.58 U/g
